These results are taken from patent publication US20210156844A1, “TMEM16A Modulation for Diagnostic or Therapeutic Use in Pulmonary Hypertension (PH)” (Bayer Aktiengesellschaft, priority 2017, published 2021).

For the assay, the target named is T1, TMEM16A (Homo sapiens, UniProt Q5XXA6).
T1 construct: endogenous in cells; host or cells: primary human PASMC from healthy donors and IPAH patients
T1 sequence (Q5XXA6 1-986): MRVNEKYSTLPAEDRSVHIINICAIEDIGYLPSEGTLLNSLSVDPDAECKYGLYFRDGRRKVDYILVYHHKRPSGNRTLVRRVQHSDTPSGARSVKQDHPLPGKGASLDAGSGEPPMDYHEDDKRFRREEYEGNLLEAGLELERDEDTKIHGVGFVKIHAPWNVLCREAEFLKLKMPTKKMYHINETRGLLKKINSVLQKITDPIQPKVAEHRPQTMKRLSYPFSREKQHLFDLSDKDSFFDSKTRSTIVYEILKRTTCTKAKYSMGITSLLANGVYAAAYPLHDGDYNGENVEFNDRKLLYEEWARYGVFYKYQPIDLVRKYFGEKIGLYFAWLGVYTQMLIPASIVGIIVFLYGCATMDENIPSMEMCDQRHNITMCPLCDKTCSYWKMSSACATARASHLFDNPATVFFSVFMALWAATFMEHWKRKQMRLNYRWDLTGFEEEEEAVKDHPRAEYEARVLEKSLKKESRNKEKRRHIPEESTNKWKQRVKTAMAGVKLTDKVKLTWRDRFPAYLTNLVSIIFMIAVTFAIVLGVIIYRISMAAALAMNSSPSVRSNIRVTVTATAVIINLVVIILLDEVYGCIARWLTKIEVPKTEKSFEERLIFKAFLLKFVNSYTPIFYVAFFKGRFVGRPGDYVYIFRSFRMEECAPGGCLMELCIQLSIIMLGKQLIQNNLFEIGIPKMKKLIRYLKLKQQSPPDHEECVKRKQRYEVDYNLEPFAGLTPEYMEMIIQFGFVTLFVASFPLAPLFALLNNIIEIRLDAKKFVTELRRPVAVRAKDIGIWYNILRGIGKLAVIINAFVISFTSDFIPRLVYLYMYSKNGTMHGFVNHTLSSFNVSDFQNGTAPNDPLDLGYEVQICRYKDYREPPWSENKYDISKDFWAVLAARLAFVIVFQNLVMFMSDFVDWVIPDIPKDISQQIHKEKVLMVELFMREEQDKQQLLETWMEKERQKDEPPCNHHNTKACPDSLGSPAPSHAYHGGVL
Description: Measurement of whole-cell Ca2+-activated Cl- current (IClCa), voltage clamp, primary PASMC. It is filed as cell-based. The following applies: benzbromarone 30 μM; primary PASMC of both donors and IPAH patients. The procedure:
For the measurement of whole-cell IClCa, PASMC grown in T-25 tissue culture flasks were freshly harvested with StemPro Accutase (Life Technologies), centrifuged (300 g, 5 min) and resuspended in Complete SMC Medium. PASMC were stored at 4° C. until use and were allowed to attach to glass coverslips for 15-30 min at room temperature before the measurements. Cells were perfused with a bath solution composed of (in mM) NaCl 150, glucose 10, HEPES 10, CaCl2 1, MgCl2 1, pH 7.4 (NaOH). The pipette solution contained (in mM) CsCl 110, TEA-Cl 20, EGTA 5, HEPES 10, Na2ATP 1, CaCl2 4.68, MgCl2 1, pH 7.2 (NaOH). The free Ca^2+ concentration of this solution was 2 μM as calculated with the MaxChelator software. In order to minimize K^+ current contamination of the recordings, after the formation of whole-cell configuration the bath solution was switched to a bath composed of (in mM) NaCl 140, glucose 10, HEPES 10, TEA-Cl 10, CaCl2 1, MgCl2 1, pH 7.4 (NaOH). In order to measure IClCa, the command potential was stepped from a 0 mV holding potential to −40, 0, +40, +80 and +120 mV for 1.5 s, allowing 0.5 s recovery time at the holding potential between each step. The average current measured between 750 and 1500 ms of each voltage step was plotted against the […]. […] Cells from the same batch that were cultured, harvested and recorded under normoxic conditions served as controls.

For `CCc1oc2ccccc2c1C(=O)c1cc(Br)c(O)c(Br)c1` [benzbromarone, (2-Ethyl-3-benzofuranyl)-(3,5-dibrom-4-hydroxyphenyl)ketone], the “whole-cell IClCa” value is on record as “significantly decreased”.
